Structures can show the parent of a compound that is named as a salt.
Assays:
CT26 cells [1] = test: Inhibition of proliferation of CT26 cells (CellTiter-Glo); type: cell-based, mouse; conditions: for IC50: 120 hours, CellTiter-Glo
Description: CT26 cell is a mouse colorectal cancer cell line. This assay used the CellTiter-Glo Luminescence Cell Vitality Assay kit from Promega to evaluate the inhibitory activity of the compounds on the proliferation of CT26 cells.
In thawing the CT26 cells (ATCC #CRL-2638), a cell freezing tube was quickly shaken in a water bath at 37° C. to thaw the cells within 1 min. The thawed cell suspension was taken and evenly mixed with DMEM medium (GE, Cat #SH30243.01) containing 10% FBS (GIBCO, Cat #10099-141), centrifuged for 5 min at 1000 rpm, and the supernatant was discarded. The cell pellet was resuspended in 5 mL of the complete medium (DMEM medium containing 10% FBS), placed into a cell culture flask with a bottom area of 25 cm^2, and incubated in a cell incubator at 37° C., 5% CO2 and 95% humidity. When the cell confluence reached 70%˜80%, the cells were passaged. All the cells in the culture flask were transferred to a 15 mL centrifuge tube, centrifuged for 5 min at 1000 rpm, and the supernatant was discarded. 5 mL of fresh complete medium was added to re-suspend the cell pellet, 1 mL of which was taken to place in a cell culture flask with a bottom area of 25 cm^2, supplemented with 4 mL of fresh complete medium for further incubation. When the cell confluence reached 70%-80% again, plating was conducted following the procedure of cell passage, retaining 1/5 cell suspension for further inculation and remaining 4/5 of the cell suspension in a 15 mL centrifuge tube.
The cell suspension was centrifuged to discard the old culture medium, washed once using DMEM medium (serum-free), and centrifuged to remove the supernatant. The cells were then re-suspended in DMEM medium (serum-free). Cell viability was then detected by Trypan blue exclusion test and to be used for plating when the cell viability was confirmed to be more than 95%. A cell suspension with a density of 1.1×10^4 viable cells/mL was prepared using DMEM medium (serum-free), and 90 μL of the cell suspension was added to a 96-well 96-well transparent flat-bottomed black-walled cell culture plate (Corning, Cat #3603) so that the cell density in the plate was 1000 viable cells/well. A control group containing no cells, no compound, and complete medium only (i.e., a culture medium control), and a control group containing no compound but cells (i.e., a cell control) were set. The cell plates were placed in a cell incubator overnight.
A 10 mM stock solution of the compounds in DMSO was first serially diluted at 3.16-fold with DMSO (Sigma, Cat #D2650) to the 9th concentration, and the 10th concentration was set as DMSO control (compound-free). Then, the DMSO solutions containing different concentrations of the compounds were diluted at 10-fold with PBS (Solarbio, Cat #P1020) so that the DMSO content in each compound solution of various concentrations was 10%. Finally, 10 μL of each of such solutions was added into corresponding cell culture plate to provide an initial compound concentration of 100 μM, with the dilution fold of adjacent concentrations being 3.16 and the DMSO content in the cell culture plate being 1%. The cell plate was placed in a cell incubator for further 120 hours.
After 120 hours, the CellTiter-Glo reagent (Promega, Cat #G7572) was thawed and the plates were equilibrated at room temperature for 30 min. 100 uL of CellTiter-Glo was added to each well of the plate, and the cells were lysed thoroughly by shaking on an orbital shaker for 5 min. The plates were placed at room temperature for 20 min to stabilize the luminescence signal, and the luminescence value of each well was scanned at full wavelength with a multifunctional microplate reader (Molecular Devices, Spectramax M3). […]

CT26 cells [2] = test: Anti-tumor activity in bilateral transplantation tumor model of CT26 syngeneic mouse; type: in vivo, BALB/c mice; conditions: Day 0 and Day 4; for Growth inhibition rate, untreated left tumor: Day 13 post-dose, 50 μg/mouse intratumorally right side; for Inhibition of tumor growth, treated right-side tumor: Day 13 post-dosing, 50 μg/mouse (2.5 mg/kg) intratumorally right side
Description: BALB/c mice of 6-8 weeks (purchased from Shanghai Ling Chang Biotech Co., Ltd.) were inoculated with 5×10^5 CT26 cells (supplied by Taicang Zexin Biotechnology Co., Ltd., ATCC #CRL-2638) subcutaneously on the left and right back dorsal, respectively, and the inoculation volume was 0.1 mL/side. When tumors grew to an average volume of 100 mm^3, they were randomized according to tumor size and mouse body weight and dosing was initiated. The day of the first dose was Day 0.
Two doses were administered on Day 0 and Day 4, with 50 μg of compound/mouse (i.e., 2.5 mg/kg) injected intratumorally right side, with the same volume of PBS (Hyclone, Cat #SH30258.01) as a control. The tumor on the left side was not treated. The control mice were sacrificed 13 days and the treated mice were sacrificed 21 days, after dosing. During the experiment, tumor volumes on the left and right sides and the body weights were measured 3 times per week, and the tumor volume was calculated as V=D×d×d/2 (where D represents length of tumor and d represents width of tumor).

| SMILES | Inhibitory potency on in vitro growth of CT26 tumor cells (in words) (CT26 cells [1]) | IC50 (CT26 cells [1]) [µM] | Growth inhibition rate, untreated left tumor (CT26 cells [2]) [%] | Inhibition of tumor growth, treated right-side tumor (CT26 cells [2]) [%] | IC50 (CT26 cells [1]; Mus musculus) [µM] |
| --- | --- | --- | --- | --- | --- |
| Nc1ncnc2c1ncn2[C@@H]1O[C@@H]2COP(=O)([S-])O[C@@H]3[C@H](O)[C@@H](COP([O-])(=S)O[C@H]2[C@H]1O)O[C@H]3n1cnc2c(N)ncnc21.[Na+].[Na+] (stereo partly shown) [ADU-S100, reference compound] | no significant tumor cell inhibitory potency | > 10 | 64.2 | 99.1 | – |
| Nc1nc2c(ncn2[C@@H]2O[C@@H]3CO[P@@](=O)(S)OC4C(F)[C@H](n5cnc6c(N)nc(Cl)nc65)O[C@@H]4CO[P@@](=O)(S)OC2C3O)c(=O)[nH]1 (stereo partly drawn) [Example 10, (2′,3′)-cyclo-(Rp,Rp)-[2′-O-phosphorothioate-diester-guanosine]-[3′-O-phosphorothioate-diester-2-chloro-2′-deoxy-2′-fluoro-beta-adenosine] diammonium salt] | particularly significant inhibitory potency | – | 91.2 | – | < 1 |
| Nc1nc2c(ncn2[C@@H]2O[C@@H]3CO[P@@](=O)(S)OC4C(F)[C@H](n5cnc6c(N)nc(Cl)nc65)O[C@@H]4CO[P@@](=O)(S)OC3C2O)c(=O)[nH]1 (stereo partly shown) [Example 17, diammonium salt] | – | – | 67.4 | 99.5 | 1 to 10 |

Reference: patent US20240059729A1, “MULTIFUNCTIONAL CYCLIC DINUCLEOTIDE AND USE THEREOF” (TYLIGAND BIOSCIENCE (SHANGHAI) LIMITED, priority 2020, published 2024)
